*1 amine or outer side, *2 acyl side, *3 side chain or, on linkers, in order; H or OH if unused. Where a SMILES comes first, the peptide text is derived from it. Bridges are numbered along the chain shown (N, C = ends). [ ]: non-standard residue; d: D form. The star is where a group is joined. X2 = C[C@H]1CC[C@@H](N2CCN(c3ccc(-c4nnc(-c5ccc(C(=O)*)cc5)s4)cc3)CC2)CC1; X1 = O=C(c1ccc(-c2nnc(-c3ccc(N4CCN(C5CCCCC5)CC4)cc3)s2)cc1)*; Orn(3R-OH,Nδ-CH(CH2OH)2) = N[C@H](C(=O)O)[C@H](O)CCNC(CO)CO; hTyr(βR-OH,3-OMe) = COc1cc(C[C@@H](O)[C@H](N)C(=O)O)ccc1O; Orn(4R-OH) = O=C([C@H](C[C@@H](O)CN[*:3])N[*:1])[*:2]; Pro(3S-OH,4S-Me) = C[C@H]1CN[C@H](C(=O)O)[C@H]1O; Orn(3R-OH) = NCC[C@@H](O)[C@H](N)C(=O)O; Hyp = O=C(O)[C@@H]1C[C@@H](O)CN1
These molecules were tested on Candida albicans FP-633. Details: FP-633, pH 7.3.
Format: cell-based
Protocol: In vitro antimicrobial activity of the object compound of Examples 1, 7, 12 and 19 disclosed later was determined by MICs in mouse serum as described below.
The MIC5 in mouse serum were determined by the microdilution method using ICR mouse serum buffered with 20 mM HEPES buffer (pH 7.3) as a test medium. Inoculum suspension of 10^6 cells/ml were prepared by a hemocytometric procedure and diluted to obtain an inoculum size of approximately 1.0×10^3 cells/ml. Microplates were incubated at 37° C. for […] in 5% CO2. The MICs was defined as the lowest concentrations at which no visible growth was observed.

| MIC | Structure (SMILES) |
| --- | --- |
| <0.2 µg/mL | COc1cc(C[C@@H](O)[C@@H]2NC(=O)[C@@H]3C[C@@H](O)CN3C(=O)[C@H]([C@@H](C)O)NC(=O)[C@@H](NC(=O)c3ccc(-c4nnc(-c5ccc(N6CCN([C@H]7CC[C@@H](C)CC7)CC6)cc5)s4)cc3)C[C@@H](O)CNC(=O)[C@@H]3[C@@H](O)[C@@H](C)CN3C(=O)[C@H]([C@H](O)CCN)NC2=O)ccc1O [Example 1] (X2-[Orn(4R-OH)]T[Hyp][hTyr(βR-OH,3-OMe)][Orn(3R-OH)][Pro(3S-OH,4S-Me)]; lactam 1-C) |
| <0.2 µg/mL | COc1cc(C[C@@H](O)[C@@H]2NC(=O)[C@@H]3C[C@@H](O)CN3C(=O)[C@H]([C@@H](C)O)NC(=O)[C@@H](NC(=O)c3ccc(-c4nnc(-c5ccc(N6CCN(C7CCCCC7)CC6)cc5)s4)cc3)C[C@@H](O)CNC(=O)[C@@H]3[C@@H](O)[C@@H](C)CN3C(=O)[C@H]([C@H](O)CCN)NC2=O)ccc1O [Example 7] (X1-[Orn(4R-OH)]T[Hyp][hTyr(βR-OH,3-OMe)][Orn(3R-OH)][Pro(3S-OH,4S-Me)]; lactam 1-C) |
| <0.2 µg/mL | COc1cc(C[C@@H](O)[C@@H]2NC(=O)[C@@H]3C[C@@H](O)CN3C(=O)[C@H]([C@@H](C)O)NC(=O)[C@@H](NC(=O)c3ccc(-c4nnc(-c5ccc(N6CCN([C@H]7CC[C@@H](C)CC7)CC6)cc5)s4)cc3)C[C@@H](O)CNC(=O)[C@@H]3[C@@H](O)[C@@H](C)CN3C(=O)[C@H]([C@H](O)CCNC(CO)CO)NC2=O)ccc1O [Example 19] (X2-[Orn(4R-OH)]T[Hyp][hTyr(βR-OH,3-OMe)][Orn(3R-OH,Nδ-CH(CH2OH)2)][Pro(3S-OH,4S-Me)]; lactam 1-C) |

Reference: US20050014685A1, “New compound” (FUJISAWA PHARMACEUTICAL CO., LTD., priority 2003, published 2005)
